Counter-ions that a name gives are not always drawn.
How the values were obtained:
[1] = biological target: T1, Humanakrosin (Homo sapiens, UniProt P10323); experiment: Gelatinolysis test: acrosin inhibition in intact human spermatozoa (halo formation, semiquantitative); type: cell-based; details: Humansperma preincubated with inhibitor
T1 construct: endogenous in cells; host or cells: intact human spermatozoa (Humansperma)
From the text: Dieser Test ist ebenfalls als Bestandteil des Primärscreenings anzusehen. Für die erwünschte kontrazeptive Wirkung eines Akrosininhibitors ist es - neben der eigentlichen Akrosinhemmung am isolierten Enzym - von essentieller Bedeutung, daß ein solcher Inhibitor in der Lage ist, das Plasmalemm und die äußere akrosomale Membran eines intakten Spermiums zu durchdringen, da Akrosin an der inneren akrosomalen Membran lokalisiert ist.
Als besonders geeignet für die Untersuchung dieser speziellen Fragestellung hat sich das Gelatinolyse-Modell nach P. Gaddum und R.Z. Blandau (Science 170: 749 - 751), modifiziert nach W.B. Schill (Int. J. Andrology 4: 25 - 38) und nach eigenen Ausarbeitungen erwiesen. Bei dieser Methode wird mit unbelichteten, fixierten und mit Methylenblau gefärbten Filmplatten für die Autoradiographie gearbeitet, deren Gelatineschicht durch die lytische Aktivität von Akrosin aufgelöst wird. Als Folge bilden sich um die Spermienköpfe gut sichtbare, weite Höfe (sog. Halo-Bildung/ Lysishof). Bei einer Hemmung von Akrosin unterbleibt die Ausbildung dieser Höfe.
Um die Penetrierfähigkeit eines erwiesenen Akrosininhibitors und damit die Hemmung von Akrosin am intakten Spermium zu untersuchen, wird Humansperma mit mehreren Konzentrationen des Inhibitors präinkubiert. […]

[2] = biological target: T1, Humanakrosin; experiment: Acrosin (human) assay: inhibition of isolated human acrosin; type: biochemical; details: Substrat: Benzoyl-L-arginyleth.-ester; read-out: I50
From the text: Dieser Test stellt das eigentliche Primärscreening dar. Er gibt einen Anhaltspunkt über die inhibitorische Effektivität einer Verbindung am Enzym (Humanakrosin) selbst, erlaubt aber noch keine Aussage über die biologische Effektivität (d.h. Hemmung von Akrosin im intakten Spermium sowie kontrazeptive Wirksamkeit) der untersuchten Verbindungen.
Das durch eine saure Extraktion aus Humansperma gewonnene Enzym Akrosin wird mit verschiedenen Konzentrationen des potentiellen Inhibitors inkubiert, und es wird diejenige Konzentration bestimmt, die zu einer 50 %igen Hemmung der Akrosinaktivität führt. Die […] Akrosin spaltet physiologischerweise bevorzugt Arginin- und Lysin-Gruppen. Deshalb wird für die in vitro-Untersuchung zur Aktivitätsbestimmung von Akrosin ein Benzoyl-Arginin-Äthylester als Substrat verwendet.

[3] = test system: Kaninchen; experiment: In vivo fertilisation (rabbit) after artificial insemination of preincubated sperm; details: sperm preincubated with 500 µg/ml, 36 h after insemination; for % geteilt: fertility rate; for geteilt: number of divided oocytes; for nicht geteilt: number of undivided oocytes
From the text: Dieser Test ermöglicht Aussagen zur kontrazeptiven Effektivität unter in-vivo-Bedingungen:
Kaninchensperma, das mit Hilfe einer künstlichen Vagina gewonnen wird, wird mit dem zu untersuchenden Akrosininhibitor präinkubiert. Anschließend werden zur Induktion einer Superovulation mit PMS (pregnant mare serum) vorbehandelte Kaninchenweibchen mit dem vorbehandelten Sperma artifiziell inseminiert. Zur Auslösung der […] erhalten sie abschließend HCG (human chorionic gonadotropin).
36 Stunden später werden die Tiere getötet, die Ovidukte und Uteri entnommen und gespült, um die frühen Embryonen bzw. ungeteilten Oocyten zu gewinnen und anhand deren Anzahl die Fertilisationsrate zu bestimmen.

[4] = test system: Maussperma; experiment: In vitro fertilisation (mouse); type: cell-based, Maus; details: for % Fertilisation: after 24 h; for Anzahl 2-Zellen-Embryos: counted after 24 h
From the text: Dieser Test erlaubt eine erste Überprüfung der kontrazeptiven Effektivität sowie eine Überprüfung des Wirkprinzips per se:
In einem Mediumtropfen nach Brinster, Whitten und Whittingham, der den Inhibitor enthält, werden zunächst die durch Superovulation gewonnenen Oocyten überführt. Anschließend wird ein Aliquot des unbehandelten Maussperma hinzupipettiert. Die Konzentrationen des Inhibitors werden so gewählt, daß keine Hemmung der Motilität vorliegt. 24 Stunden später wird die Anzahl der geteilten und nicht geteilten Oocyten und damit die Fertilitätsrate bestimmt.
Es wird also überprüft, ob der zu untersuchende Akrosininhibitor, appliziert in einem System, in dem es zum unmittelbaren Kontakt zwischen Oocyte und Spermium kommt, eine Fertilisation hemmen kann - ohne daß eine Hemmung der Motilität der Spermien vorliegt.

T1 sequence (P10323 20-421): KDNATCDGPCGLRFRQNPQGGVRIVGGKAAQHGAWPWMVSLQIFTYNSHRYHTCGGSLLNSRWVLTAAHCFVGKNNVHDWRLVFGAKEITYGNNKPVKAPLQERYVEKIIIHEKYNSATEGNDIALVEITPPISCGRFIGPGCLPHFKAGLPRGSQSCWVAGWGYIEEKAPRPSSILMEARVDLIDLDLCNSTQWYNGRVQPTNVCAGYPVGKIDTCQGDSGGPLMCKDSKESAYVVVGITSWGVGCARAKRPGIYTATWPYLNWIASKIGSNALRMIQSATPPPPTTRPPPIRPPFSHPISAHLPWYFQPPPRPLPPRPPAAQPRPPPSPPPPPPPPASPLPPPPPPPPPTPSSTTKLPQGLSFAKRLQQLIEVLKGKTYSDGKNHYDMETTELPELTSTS

Structure (SMILES)	Gelatinolyse: Hemmung der Akrosinaktivität ([1]; 1 µg/ml)	Gelatinolyse: Hemmung der Akrosinaktivität ([1]; 10 µg/ml)	IC50 [2] [nM]	% geteilt [3] [%]	geteilt [3]	nicht geteilt [3]	% Fertilisation ([4]; 5 ug/ml) [%]	Anzahl 2-Zellen-Embryos ([4]; 5 ug/ml)	% Fertilisation ([4]; 50 ug/ml) [%]	Anzahl 2-Zellen-Embryos ([4]; 50 ug/ml)
COC(=O)c1ccccc1OC(=O)c1ccc(NC(=N)N)cc1 [Verbindung 1, 4-Guanidinobenzoesäure-(2-methoxycarbonylphenyl)-ester Hydrochlorid, reference compound]	++ bis +++	+ bis ++	733	51	88	83	78	195	–	–
N#Cc1ccccc1OC(=O)c1ccc(NC(=N)N)cc1 [Verbindung 2, 4-Guanidinobenzoesäure-(2-cyanophenyl)-ester Hydrochlorid]	–	–	40	1	2	158	59	134	7	22
CCOC(=O)c1cccc(OC(=O)c2ccc(NC(=N)N)cc2)c1 [Verbindung 3, 4-Guanidinobenzoesäure-(3-ethoxycarbonylphenyl)-ester Hydrochlorid]	–	–	200	1	–	–	–	–	–	–
COC(=O)c1cccc(OC(=O)c2ccc(NC(=N)N)cc2)c1 [Verbindung 5, 4-Guanidinobenzoesäure-(3-methoxycarbonylphenyl)-ester Hydrochlorid]	–	–	550	–	–	–	–	–	–	–
N=C(N)Nc1ccc(C(=O)Oc2cccc(C(N)=O)c2)cc1 [Verbindung 6, 4-Guanidinobenzoesäure-(3-carbamoylphenyl)-ester Hydrochlorid]	–	–	320	–	–	–	–	–	–	–

From EP0170180A1, “Substituted guanidinobenzoic-acid phenyl esters, process for their production and their use as pharmaceutical preparations” (SCHERING AKTIENGESELLSCHAFT, priority 1984, dated 1986)
